SMILES strings stand for the structures.

The record followed here is patent publication US10730868B2, “Bicyclic heteroaryl substituted compounds” (BRISTOL-MYERS SQUIBB COMPANY, priority 2016, dated 2020).

PAR4, sequence (Q96RI0 18-385): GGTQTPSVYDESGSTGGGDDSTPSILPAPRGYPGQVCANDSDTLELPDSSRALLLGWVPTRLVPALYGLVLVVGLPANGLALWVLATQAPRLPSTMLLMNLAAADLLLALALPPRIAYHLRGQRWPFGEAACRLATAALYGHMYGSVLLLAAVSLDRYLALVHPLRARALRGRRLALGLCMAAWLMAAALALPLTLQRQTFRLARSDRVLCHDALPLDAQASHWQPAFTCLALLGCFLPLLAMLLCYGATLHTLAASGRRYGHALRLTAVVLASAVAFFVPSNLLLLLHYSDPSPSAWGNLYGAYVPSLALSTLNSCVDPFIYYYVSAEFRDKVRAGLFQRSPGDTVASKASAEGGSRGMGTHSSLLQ

The target of the assay is PAR4 (Homo sapiens (Human), UniProt Q96RI0). The assay is described as follows: PAR4 FLIPR assay (antagonism of agonist-peptide-induced calcium mobilization). It is filed as cell-based. The conditions noted are these: H-Ala-Phe(4-F)-[…]NH2-induced intracellular calcium mobilization, PAR4-expressing HEK293 cells; read-out: PAR4 FLTPR assay (IC50). An excerpt:
The Fluorometric Imaging Plate Reader (FLIPR) assay is an exemplary in vitro assay for measuring the activity of the PAR4 antagonists of the present invention. In this assay, intracellular calcium mobilization is induced in PAR4 expressing cells by a PAR4 agonist and calcium mobilization is monitored.
HEK293 cells stably expressing PAR4 were generated by a standard method of transfection of human PAR4 (F2R23) cDNA expression vector and selected based on PAR4 protein expression or mRNA expression. […] These cells also express endogenous PAR1 and can elicit calcium signal upon stimulation with PAR1 agonist peptide. Therefore, the same cells were also used to determine selectivity against PAR1 and agonist activity for both receptors. Cells from HEK293 PAR4 Clone 1.2A (BMS Arctic ID 383940) were propagated and used for calcium mobilization studies.
FLIPR-based calcium mobilization assay in HEK293 cells was used to measure PAR4 antagonism agonism, and selectivity against PAR1. The activity of the PAR4 antagonists of the present invention were tested in PAR4 expressing cells by monitoring H-Ala-Phe(4-F)-[…]NH2-induced intracellular calcium mobilization. Counter screens for agonist activity and PAR1 antagonist activity were also performed. Briefly, PAR/PAR4-expressing HEK293 cells were grown in DMEM (Life Technology, Grand Island, N.Y.) containing 10% heat-inactivated FBS, 1% Penicillin-Streptomycin, 10 μg/mL blasticidin, and 100 μg/mL Zeocin at 37° C. with 5% CO2. Cells were plated overnight prior to the experiment in a black 384-well Purecoat Amine clear bottom plate (Becton Dickinson Biosciences, San Jose, Calif.) at 10,000 cells/well in 30 μL growth medium and incubated in a humidified chamber at 37° C. with 5% CO2 overnight. Prior to compound addition, the cell medium was replaced with 40 μL of 1× calcium and magnesium-containing Hank's Balanced Saline Solution (HBSS) (with 20 mM HEPES) and 1:1000 diluted fluorescent calcium indicator (Codex Biosolutions, Gaithersburg, Md.). After a 30 minute incubation period at 37° C. and a further 30 minute incubation and equilibration period at room temperature, 20 μL test compound (diluted in 1×HBSS buffer) was added at various concentrations at 0.17% dimethyl sulfoxide (DMSO) final concentration. Changes in fluorescence intensity were measured using a Functional Drug Screening System (FDSS, Hamamatsu, Japan) to determine agonist activities. The cells were then incubated for 30 minutes at room temperature followed by addition of 20 μL of agonist peptide for antagonist activity measurement. […] Compound potency was derived from 11-point concentration-response curves.
For `COc1cnc2c(-c3nc4cc(F)c(OC5CC(F)(F)CC[C@@H]5OC(=O)Nc5cnc(C)nc5)cc4s3)cc(C)cc2n1` (mixture of isomers) [Example 7], the IC50 is 0.67 nM.
In the case of `COc1cnc2c(-c3nc4cc(F)c(OC5CC(F)(F)CC[C@@H]5OC(=O)Nc5cnc(OC)nc5)cc4s3)cc(C)cc2n1` (mixture of isomers) [Example 11] it was 2.8 nM; in that of `COc1cnc2c(-c3nc4cc(F)c(OC5CC(F)(F)CC[C@@H]5OC(=O)Nc5cncc(C#N)c5)cc4s3)cc(C)cc2n1` (mixture of isomers) [Example 12], 5.7 nM.
For `COc1ccc(NC(=O)O[C@H]2CCC(F)(F)CC2Oc2cc3sc(-c4cc(C)cc5nc(OC)cnc45)nc3cc2F)cn1` (mixture of isomers) [Example 14], the IC50 is 2.4 nM.
Take `COc1cnc2c(-c3nc4cc(F)c(OC5CCC[C@@H]5O)cc4s3)cc(C)cc2n1` (mixture of isomers) [Example 21, rac-cis-2-((5-fluoro-2-(2-methoxy-7-methylquinoxalin-5-yl)benzo[c]thiazol-6-yl)oxy)cyclopentanol]: the IC50 was 470 nM.
`COc1ccc(NC(=O)O[C@@H]2CCC[C@H]2Oc2cc3sc(-c4cc(C)cc5nc(OC)cnc45)nc3cc2F)cn1` (racemic) [Example 28]: the IC50 came out at 96 nM.
As to `COc1ccc(NC(=O)O[C@@H]2CCC[C@@H]2Oc2cc3sc(-c4cc(C)cc5nc(OC)cnc45)nc3cc2F)cn1` (racemic) [Example 33], the IC50 turned out to be 3.1 nM.
For `COc1cnc2c(-c3nc4cc(F)c(O[C@H]5CCC[C@H]5OC(=O)Nc5cnc(C)nc5)cc4s3)cc(C)cc2n1` (racemic) [Example 35], the concentration for half-maximal inhibition (IC50) was 2.5 nM.
To `COc1cnc2c(-c3nc4cc(F)c(O[C@H]5CCC[C@H]5OC(=O)Nc5cccnc5)cc4s3)cc(C)cc2n1` (racemic) [Example 38] belongs 9.4 nM.
For the compound `COc1cnc2c(-c3nc4cc(F)c(O[C@@H]5CCC[C@@H]5OC)cc4s3)cc(C)cc2n1` (racemic) [Example 40, rac-5-fluoro-2-(2-methoxy-7-methylquinoxalin-5-yl)-6-((cis-2-methoxycyclopentyl)oxy)benzo[d]thiazole], the IC50 amounted to 83 nM.
On to `COc1cnc2c(-c3nc4cc(F)c(O[C@@H]5CCC[C@H]5O)cc4s3)cc(C)cc2n1` (racemic) [Example 41, rac-trans-2-((5-fluoro-2-(2-methoxy-7-methylquinoxalin-5-yl)benzo[d]thiazol-6-yl)oxy)cyclopentanol], for which the IC50 was found to be 180 nM.
In the case of `COc1cnc2c(-c3nc4cc(F)c(O[C@@H]5CCC[C@H]5OC)cc4s3)cc(C)cc2n1` (racemic) [Example 42, rac-5-fluoro-2-(2-methoxy-7-methylquinoxalin-5-yl)-6-((trans-2-methoxycyclopentyl)oxy)benzo[d]thiazole], the IC50 was determined as 320 nM.
Consider `COc1cnc2c(-c3nc4cc(F)c(O[C@@H]5CCC[C@H]5O)cc4s3)cc(CO)cc2n1` (racemic) [Example 43, rac-trans-2-((5-fluoro-2-(7-(hydroxymethyl)-2-methoxyquinoxalin-5-yl)benzo[d]thiazol-6-yl)oxy)cyclopentanol], for which the IC50 turned out to be 22 nM.
In the case of `COc1cnc2c(-c3nc4cc(F)c(O[C@@H]5CCC[C@@H]5OC(=O)Nc5cccnc5)cc4s3)cc(CO)cc2n1` (racemic) [Example 44, rac-cis-2-((5-fluoro-2-(7-(hydroxymethyl)-2-methoxyquinoxalin-5-yl)benzo[d]thiazol-6-yl)oxy)cyclopentyl pyridin-3-ylcarbamate] it was 25 nM; in that of `COc1cnc2c(-c3nc4cc(F)c(O[C@@H]5CCC[C@@H]5OC(=O)Nc5cncc(C#N)c5)cc4s3)cc(C#N)cc2n1` (racemic) [Example 45, rac-cis-2-((2-(7-cyano-2-methoxyquinoxalin-5-yl)-5-fluorobenzo[d]thiazol-6-yl)oxy)cyclopentyl (5-cyanopyridin-3-yl)carbamate], 2.2 nM.
With `COc1cnc2c(-c3nc4cc(F)c(O[C@@H]5CCC[C@@H]5OC(=O)Nc5cnc(C)nc5)cc4s3)cc(C#N)cc2n1` (racemic) [Example 46, rac-cis-2-((2-(7-cyano-2-methoxyquinoxalin-5-yl)-5-fluorobenzo[d]thiazol-6-yl)oxy)cyclopentyl (2-methylpyrimidin-5-yl)carbamate], the half-maximal inhibitory concentration (IC50) is 2 nM.
To `COc1ccc(NC(=O)O[C@@H]2CCCC[C@H]2Oc2cc3sc(-c4cc(C)cc5nc(OC)cnc45)nc3cc2F)cn1` (racemic) [Example 53, rac-trans-2-((5-fluoro-2-(2-methoxy-7-methylquinoxalin-5-yl)benzo[d]thiazol-6-yl)oxy)cyclohexyl (6-methoxypyridin-3-yl)carbamate] belongs 94 nM; to `COc1cnc2c(-c3nc4cc(F)c(O[C@@H]5CCCC[C@H]5OC(=O)Nc5cnc(C)nc5)cc4s3)cc(C)cc2n1` (racemic) [Example 54, rac-trans-2-((5-fluoro-2-(2-methoxy-7-methylquinoxalin-5-yl)benzo[d]thiazol-6-yl)oxy)cyclohexyl (2-methylpyrimidin-5-yl)carbamate], 13 nM; to `COc1cnc2c(-c3nc4cc(F)c(O[C@@H]5CCCC[C@@H]5OC(=O)Nc5cccnc5)cc4s3)cc(C)cc2n1` (racemic) [Example 55, rac-cis-2-((5-fluoro-2-(2-methoxy-7-methylquinoxalin-5-yl)benzo[d]thiazol-6-yl)oxy) cyclohexyl pyridin-3-ylcarbamate], 1.4 nM.
Regarding `COc1cnc2c(-c3nc4cc(F)c(O[C@@H]5CCCC[C@@H]5OC(=O)Nc5ccncc5)cc4s3)cc(C)cc2n1` (racemic) [Example 56, rac-cis-2-((5-fluoro-2-(2-methoxy-7-methylquinoxalin-5-yl)benzo[d]thiazol-6-yl)oxy) cyclohexyl pyridin-4-ylcarbamate], the IC50 was 1.8 nM.
Regarding `COc1ccc(NC(=O)O[C@H]2CCCC[C@H]2Oc2cc3sc(-c4cc(C)cc5nc(OC)cnc45)nc3cc2F)cn1` (racemic) [Example 57, rac-cis-2-((5-fluoro-2-(2-methoxy-7-methylquinoxalin-5-yl)benzo[d]thiazol-6-yl)oxy) cyclohexyl (6-methoxypyridin-3-yl)carbamate], the IC50 was found to be 6.1 nM.
For `COc1cnc2c(-c3nc4cc(F)c(O[C@@H]5CC[C@@H]5OC(=O)Nc5cnc(C)nc5)cc4s3)cc(C)cc2n1` (racemic) [Example 61, rac-cis-2-((5-fluoro-2-(2-methoxy-7-methylquinoxalin-5-yl)benzo[d]thiazol-6-yl)oxy) cyclobutyl (2-methylpyrimidin-5-yl)carbamate], the IC50 was 1.3 nM.
Take `COc1ccc(NC(=O)O[C@H]2CC[C@H]2Oc2cc3sc(-c4cc(C)cc5nc(OC)cnc45)nc3cc2F)cn1` (racemic) [Example 66]: the IC50 was 0.79 nM.
On to `COc1cnc2c(-c3nc4cc(F)c(O[C@@H]5CC[C@@H]5OC(=O)Nc5cnc(OCCO)nc5)cc4s3)cc(C)cc2n1` (racemic) [Example 71], for which the IC50 is 1.6 nM.
To `COc1cnc2c(-c3nc4cc(F)c(O[C@@H]5CC[C@@H]5OC(=O)Nc5cnc(OCCO)nc5)cc4s3)cc(Cl)cc2c1` (racemic) [Example 79] belongs 0.9 nM; to `COc1cnc2c(-c3nc4cc(F)c(O[C@@H]5CC[C@@H]5OC(=O)Nc5cnc(C)nc5)cc4s3)cc(Cl)cc2c1` (racemic) [Example 82], 1.1 nM; to `COc1cnc2c(-c3nc4cc(F)c(O[C@@H]5CC(C)(C)C[C@@H]5OC(=O)Nc5cnc(C)nc5)cc4s3)cc(C)cc2n1` (racemic) [Example 83], 6.8 nM.
As to `COc1cnc2c(-c3nc4cc(F)c(O[C@@H]5COC[C@@H]5OC(=O)Nc5cnc(C)nc5)cc4s3)cc(C)cc2n1` (racemic) [Example 86, rac-cis-4-((5-fluoro-2-(2-methoxy-7-methylquinoxalin-5-yl)benzo[d]thiazol-6-yl)oxy) tetrahydrofuran-3-yl (2-methylpyrimidin-5-yl)carbamate], the IC50 was determined as 2.7 nM.
For `COc1ccc(NC(=O)O[C@H]2COC[C@H]2Oc2cc3sc(-c4cc(C)cc5nc(OC)cnc45)nc3cc2F)cn1` (racemic) [Example 87, rac-cis-4-((5-fluoro-2-(2-methoxy-7-methylquinoxalin-5-yl)benzo[d]thiazol-6-yl)oxy) tetrahydrofuran-3-yl (6-methoxypyridin-3-yl)carbamate], the IC50 worked out at 6.2 nM.
